Reference: ChEMBL document CHEMBL1201862, “PubChem BioAssay data set” (2004)
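Briefly, cells in 96-well plates were exposed to five compound concentrations for 48 h, and endpoints were estimated by linear interpolation. Abbreviation: GI50, concentration required for 50% inhibition of growth.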 Activity calls are given as the source filed them. Rule as the data show it: active = GI50 up to about 1.1 µM and inactive = higher.

Assays:
Assay in all cases: inhibition of tumour cell growth, NCI panel, 48 h
[1] = test system: UO-31
[2] = test system: DLD-1
[3] = test system: A498
[4] = test system: COLO 205
[5] = test system: CAKI-1
[6] = test system: SNB-19
[7] = test system: OVCAR-3
[8] = test system: XF498
[9] = test system: M19-MEL
[10] = test system: U-251
[11] = test system: NCI/ADR-RES
[12] = test system: NCI-H226
[13] = test system: RXF 393
[14] = test system: DMS-273
[15] = test system: HT-29
[16] = test system: SW-620
[17] = test system: MOLT-4
[18] = test system: KM-20L2
[19] = test system: CCRF-CEM
[20] = test system: HOP-92
[21] = test system: OVCAR-8
[22] = test system: HCT-15
[23] = test system: A549
[24] = test system: SF-539
[25] = test system: NCI-H522
[26] = test system: LOX IMVI
[27] = test system: HCT-116
[28] = test system: RPMI-8226
[29] = test system: SNB-78
[30] = test system: SNB-75
[31] = test system: Malme-3M
[32] = test system: SN12C
[33] = test system: SK-MEL-28
[34] = test system: HOP-62
[35] = test system: NCI-H23
[36] = test system: UACC-62
[37] = test system: OVCAR-4
[38] = test system: KM12
[39] = test system: OVCAR-5
[40] = test system: K562
[41] = test system: IGROV-1
[42] = test system: HL-60
[43] = test system: NCI-H460
[44] = test system: SF-295
[45] = test system: SK-MEL-5
[46] = test system: SK-OV-3
[47] = test system: EKVX
[48] = test system: SK-MEL-2
[49] = test system: MCF7
[50] = test system: SF-268
[51] = test system: HOP-18
[52] = test system: UACC-257
[53] = test system: HCC 2998
[54] = test system: TK-10
[55] = test system: ACHN
[56] = test system: M14
[57] = test system: LXFL 529
[58] = test system: DMS-114
[59] = test system: 786-0

CC1(C)S[C@@H]2[C@H](NC(=O)CCC[C@@H](N)C(=O)O)C(=O)N2[C@H]1C(=O)O [ADICILLIN]
GI50 [1]: > 50 µM (inactive) | GI50 [2]: > 50 µM (inactive) | GI50 [3]: > 44.7 µM (inactive) | GI50 [4]: > 50 µM (inactive) | GI50 [5]: > 50 µM (inactive) | GI50 [6]: > 50 µM (inactive) | GI50 [7]: > 50 µM (inactive) | GI50 [8]: 24.1 µM (inactive) | GI50 [9]: > 50 µM (inactive) | GI50 [10]: > 25.6 µM (inactive) | GI50 [11]: > 31.6 µM (inactive) | GI50 [12]: > 50 µM (inactive) | GI50 [13]: > 50 µM (inactive) | GI50 [14]: > 50 µM (inactive) | GI50 [15]: > 50 µM (inactive) | GI50 [16]: > 31.6 µM (inactive) | GI50 [17]: > 50 µM (inactive) | GI50 [18]: > 24.8 µM (inactive) | GI50 [19]: > 50 µM (inactive) | GI50 [20]: > 50 µM (inactive) | GI50 [21]: > 19.9 µM (inactive) | GI50 [22]: > 50 µM | GI50 [23]: > 50 µM (inactive) | GI50 [24]: > 50 µM (inactive) | GI50 [25]: > 50 µM (inactive) | GI50 [26]: > 50 µM (inactive) | GI50 [27]: > 50 µM (inactive) | GI50 [28]: > 50 µM (inactive) | GI50 [29]: > 50 µM (inactive) | GI50 [30]: > 50 µM (inactive) | GI50 [31]: > 50 µM (inactive) | GI50 [32]: > 50 µM (inactive) | GI50 [33]: > 50 µM (inactive) | GI50 [34]: > 50 µM (inactive) | GI50 [35]: > 50 µM (inactive) | GI50 [36]: > 50 µM (inactive) | GI50 [37]: > 50 µM (inactive) | GI50 [38]: > 50 µM (inactive) | GI50 [39]: 23.3 µM (inactive) | GI50 [40]: > 50 µM (inactive) | GI50 [41]: > 50 µM (inactive) | GI50 [42]: > 50 µM (inactive) | GI50 [43]: > 50 µM (inactive) | GI50 [44]: > 50 µM (inactive) | GI50 [45]: > 15 µM (inactive) | GI50 [46]: > 41 µM (inactive) | GI50 [47]: > 50 µM (inactive) | GI50 [48]: > 50 µM (inactive) | GI50 [49]: > 50 µM (inactive) | GI50 [50]: > 50 µM (inactive) | GI50 [51]: > 50 µM (inactive) | GI50 [52]: > 50 µM (inactive) | GI50 [53]: > 50 µM (inactive)

COc1ccc(NC(=O)CSc2nnc(Cc3ccccc3)o2)cc1
GI50 [1]: > 100 µM (inactive) | GI50 [2]: > 100 µM (inactive) | GI50 [3]: > 100 µM (inactive) | GI50 [4]: 94.8 µM (inactive) | GI50 [5]: > 100 µM (inactive) | GI50 [6]: 97.7 µM (inactive) | GI50 [7]: 78.3 µM (inactive) | GI50 [9]: 82.6 µM (inactive) | GI50 [10]: 34.5 µM (inactive) | GI50 [12]: > 100 µM (inactive) | GI50 [13]: > 100 µM (inactive) | GI50 [54]: > 100 µM (inactive) | GI50 [14]: > 100 µM (inactive) | GI50 [15]: 74.1 µM (inactive) | GI50 [55]: > 100 µM (inactive) | GI50 [16]: > 100 µM (inactive) | GI50 [17]: > 100 µM (inactive) | GI50 [56]: > 100 µM (inactive) | GI50 [18]: > 100 µM (inactive) | GI50 [19]: 82.2 µM (inactive) | GI50 [21]: > 100 µM (inactive) | GI50 [22]: > 100 µM | GI50 [23]: > 100 µM (inactive) | GI50 [57]: > 100 µM (inactive) | GI50 [24]: > 100 µM (inactive) | GI50 [25]: 53.7 µM (inactive) | GI50 [26]: 53.5 µM (inactive) | GI50 [27]: > 100 µM (inactive) | GI50 [28]: 41.4 µM (inactive) | GI50 [29]: > 100 µM (inactive) | GI50 [30]: > 100 µM (inactive) | GI50 [31]: > 100 µM (inactive) | GI50 [32]: > 100 µM (inactive) | GI50 [33]: > 100 µM (inactive) | GI50 [34]: > 100 µM (inactive) | GI50 [35]: 61.5 µM (inactive) | GI50 [36]: > 100 µM (inactive) | GI50 [37]: > 100 µM (inactive) | GI50 [38]: > 100 µM (inactive) | GI50 [39]: > 100 µM (inactive) | GI50 [40]: > 100 µM (inactive) | GI50 [41]: > 100 µM (inactive) | GI50 [43]: > 100 µM (inactive) | GI50 [44]: 55.6 µM (inactive) | GI50 [45]: 85.1 µM (inactive) | GI50 [46]: > 100 µM (inactive) | GI50 [48]: > 100 µM (inactive) | GI50 [58]: 17.9 µM (inactive) | GI50 [50]: 88.1 µM (inactive) | GI50 [51]: > 100 µM (inactive) | GI50 [52]: > 100 µM (inactive) | GI50 [53]: > 100 µM (inactive) | GI50 [59]: > 100 µM (inactive)
